For assay [1], the target named is T1, HCV genotype 1b (BK) NS3 modified enzyme with a R155K mutation (Hepatitis C virus genotype 1b, UniProt P26663, R1181K).
T1 construct: HCV genotype 1b (BK) NS3 modified enzyme
Briefly: HCV NS3 protease time-resolved fluorescence (TRF) assay, genotype 1b R155K. Conditions: Ki 1b R155K, genotype 1b (BK) NS3 R155K; single value. It counts as biochemical. The gist of the method:
(§1)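 Time-resolved fluorescence, ex 340/em 615 nm, 400 μs delay; IC50 by four-parameter fit. Enzyme preincubated with compound 10 min, then TRF substrate 25 nM final added and reaction run 6 h at RT. Buffer HEPES pH 7.5 with NaCl, glycerol, Triton X-100, DTT, PEG 8000.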

The target of assay [2] is HCV NS3 protease genotype 3a (3A-1) (Hepatitis C virus genotype 3a, UniProt Q81258). Briefly: HCV NS3 protease time-resolved fluorescence (TRF) assay, genotype 3a. The note with it: Ki 3a. It counts as biochemical. An outline of the steps: as §1

This note sets out measurements from patent publication US9328138B2 (priority 2011, dated 2016).

SMILES strings stand for the structures.

`C=C[C@@H]1C[C@]1(NC(=O)[C@@H]1C[C@@H]2CN1C(=O)[C@H](C1CCCC1)NC(=O)O[C@@H]1CCC[C@H]1CC/C=C/Cc1c(nc3ccccc3c1OC(C)=O)O2)C(=O)NS(=O)(=O)C1CC1` [Example 39, (3aR,7S,10S,12R,21E,24aS)-7-cyclopentyl-10-({(1R,2S)-1-[(cyclopropylsulfonyl)carbamoyl]-2-ethenylcyclopropyl}carbamoyl)-5,8-dioxo-1,2,3,3a,5,6,7,8,11,12,20,23,24,24a-tetradecahydro-10H-9,12-methanocyclopenta[18,19][1,10,3,6]dioxadiazacyclononadecino[11,12-b]quinolin-19-yl acetate]: the inhibitory constant (Ki) in assay [1] stood at 0.13 nM; in assay [2], 3.5 nM.
For `CN1CCN(CCCOc2c3c(nc4ccccc24)O[C@@H]2C[C@H]4C(=O)N[C@]5(C(=O)NS(=O)(=O)C6(C)CC6)C[C@H]5/C=C\CCCCC[C@H](NC(=O)O[C@@H]5C[C@H]5CCC/C=C/3)C(=O)N4C2)CC1` [Example 304, (1aR,5S,11Z,12aS,13aR,16S,19R,27E, 31aR)-N-[(1-methylcyclopropyl)sulfonyl]-26-[3-(4-methylpiperazin-1-yl)propoxy]-3,15,33-trioxo-1,1a,3,4,5,6,7,8,9,10,12a,13,15,16,18, 19,29,30,31,31a-icosahydro-5,17:16,19-dimethanodicyclopropa[12,13:28,29] [1,20,3,14,17] dioxatriazacyclononacosino[21,22-b]quinoline-13a(14H)-carboxamide], the Ki amounted to 0.078 nM in assay [1] and 1.2 nM in assay [2].
Consider `C=C[C@@H]1C[C@]1(NC(=O)[C@@H]1C[C@@H]2CN1C(=O)[C@H](C(C)(C)C)NC(=O)O[C@@H]1C[C@H]1CCCCCc1c(nc3ccccc3c1OCCCN1CCC1)O2)C(=O)NS(=O)(=O)C1(C)CC1` [Example 133, (1aR,5S,8S,10R,22aR)-17-[3-(azetidin-1-yl)propoxy]-5-tert-butyl-N-[(1R,2S)-2-ethenyl-1-{[(1-methylcyclopropyl)sulfonyl]carbamoyl}cyclopropyl]-3,6-dioxo-1,1a,3,4,5,6,9,10,18,19,20,21,22,22a-tetradecahydro-8H-7,10-methanocyclopropa[18,19][1,10,3,6]dioxadiazacyclononadecino[11,12-b]quinoline-8-carboxamide], for which the Ki in assay [1] was found to be 0.11 nM; in assay [2] it was 1 nM.
For `C=C[C@@H]1C[C@]1(NC(=O)[C@@H]1C[C@@H]2CN1C(=O)[C@H](C1CCCCC1)NC(=O)O[C@@H]1C[C@H]1CCCCCc1c(nc3ccccc3c1OCCCSc1nncn1C)O2)C(=O)NS(=O)(=O)C1(C)CC1` [Example 171, (1aR,5S,8S,10R,22aR)-5-cyclohexyl-N-[(1R,2S)-2-ethenyl-1-{[(1-methylcyclopropyl)sulfonyl]carbamoyl}cyclopropyl]-17-{3-[(4-methyl-4H-1,2,4-triazol-3-yl)sulfanyl]propoxy}-3,6-dioxo-1,1a,3,4,5,6,9,10, 18,19,20,21,22,22a-tetradecahydro-8H-7,10-methanocyclopropa[18,19][1,10,3,6] dioxadiazacyclononadecino[11,12-b] quinoline-8-carboxamide], in that order: 0.099 nM and 2 nM.
For the compound `C=C[C@@H]1C[C@]1(NC(=O)[C@@H]1C[C@@H]2CN1C(=O)[C@H](C(C)(C)C)NC(=O)O[C@@H]1CCC[C@H]1CC/C=C/Cc1c(nc3ccccc3c1OCCCOC)O2)C(=O)NS(=O)(=O)C1(C)CC1` [Example 90, (3aR,7S,10S,12R,21E,24aS)-7-tert-butyl-N-[(1R,2S)-2-ethenyl-1-{[(1-methylcyclopropyl)sulfonyl]carbamoyl}cyclopropyl]-19-(3-methoxypropoxy)-5,8-dioxo-1,2,3,3a,5,6,7,8,11,12,20,23,24,24a-tetradecahydro-10H-9,12-methanocyclopenta[18,19][1,10,3,6] dioxadiazacyclononadecino [11,12-b]quinoline-10-carboxamide], the Ki worked out at 0.15 nM in assay [1] and 1.6 nM in assay [2].
For `C=C[C@@H]1C[C@]1(NC(=O)[C@@H]1C[C@@H]2CN1C(=O)[C@H](C1CCCC1)NC(=O)O[C@@H]1CCC[C@H]1CC/C=C/Cc1c(nc3cccc(Cl)c3c1OC)O2)C(=O)NS(=O)(=O)C1CC1` [Example 10, (3aR,7S,10S,12R,21E,24aS)-18-chloro-7-cyclopentyl-N-{(1R,2S)-1-[(cyclopropylsulfonyl)carbamoyl]-2-ethenylcyclopropyl}-19-methoxy-5,8-dioxo-1,2,3,3a,5,6,7,8,11,12,20,23,24,24a-tetradecahydro-10H-9,12-methanocyclopenta [18,19][1,10,3,6]dioxadiazacyclononadecino [11,12-b]quinoline-10-carboxamide], the inhibition constant (Ki) in assay [1] is 0.19 nM; in assay [2] it was 11 nM.
With `C=C[C@@H]1C[C@]1(NC(=O)[C@@H]1C[C@@H]2CN1C(=O)[C@H](CC1CCCCC1)NC(=O)O[C@@H]1C[C@H]1CCCCCc1c(nc3ccccc3c1OCCN1CCOCC1)O2)C(=O)NS(=O)(=O)C1(C)CC1` [Example 125, (1aR,5S,8S,10R,22aR)-5-(cyclohexylmethyl)-N-[(1R,2S)-2-ethenyl-1-{[(1-methylcyclopropyl)sulfonyl]carbamoyl}cyclopropyl]-17-[2-(morpholin-4-yl)ethoxy]-3,6-dioxo-1,1a,3,4,5,6,9,10,18,19,20, 21,22,22a-tetradecahydro-8H-7,10-methanocyclopropa [18,19][1,10,3,6]dioxadiazacyclo nonadecino[11,12-b]quinoline-8-carboxamide], the Ki in assay [1] amounted to 4.1 nM; in assay [2], 114 nM.
For `C=C[C@@H]1C[C@]1(NC(=O)[C@@H]1C[C@@H]2CN1C(=O)[C@H](C(C)(C)C)NC(=O)O[C@@H]1C[C@H]1CCCCCc1c(nc3ccccc3c1OCCc1ccccn1)O2)C(=O)NS(=O)(=O)C1(C)CC1` [Example 217, (1aR,5S,8S,10R,22aR)-5-tert-butyl-N-[(1R,2S)-2-ethenyl-1-{[(1-methylcyclopropyl)sulfonyl]carbamoyl}cyclopropyl]-3,6-dioxo-17-[2-(pyridin-2-yl)ethoxy]-1,1a,3,4,5,6,9,10,18,19,20,21,22,22a-tetradecahydro-8H-7,10-methanocyclopropa[18,19][1,10,3,6] dioxadiazacyclononadecino[11,12-b]quinoline-8-carboxamide], the Ki stood at 0.27 nM in assay [1] and 7.1 nM in assay [2].
Turning to `C=C[C@@H]1C[C@]1(NC(=O)[C@@H]1C[C@@H]2CN1C(=O)[C@H](C(C)(C)C)NC(=O)O[C@@H]1C[C@H]1CCCCCc1c(nc3ccccc3c1OCCCNCCN1CCCC1=O)O2)C(=O)NS(=O)(=O)C1(C)CC1` [Example 197, (1aR,5S,8S,10R,22aR)-5-tert-butyl-N-[(1R,2S)-2-ethenyl-1-{[(1-methylcyclopropyl)sulfonyl]carbamoyl}cyclopropyl]-3,6-dioxo-17-(3-{[2-(2-oxopyrrolidin-1-yl)ethyl]amino}propoxy)-1,1a,3,4,5,7,9,10, 18,19,20,21,22,22a-tetra decahydro-8H-7,10-methanocyclopropa[18,19][1,10,3,6] dioxdiazacyclononadecino[11,12-b] quinoline-8-carboxamide], the inhibitory constant (Ki) in assay [1] came out at 0.027 nM; in assay [2], 0.31 nM.
For `CC[C@@H]1C[C@]1(NC(=O)[C@@H]1C[C@@H]2CN1C(=O)[C@H](C1CCCC1)NC(=O)OC1(C)CCCC1CCCCCc1c(nc3ccccc3c1O)O2)C(=O)NS(=O)(=O)C1CC1` (single isomer, unassigned) [Example 32], the inhibition constant Ki in assay [1] was 0.54 nM; in assay [2], 9.2 nM.
In the case of `C=C[C@@H]1C[C@]1(NC(=O)[C@@H]1C[C@@H]2CN1C(=O)[C@H](C(C)(C)C)NC(=O)O[C@@H]1CCC[C@H]1CC/C=C/Cc1c(nc3ccccc3c1OCCN1CCCCC1)O2)C(=O)NS(=O)(=O)C1CC1` [Example 75, (3aR,7S,10S,12R,21E,24aS)-7-tert-butyl-N-{(1R,2S)-1-[(cyclopropylsulfonyl)carbamoyl]-2-ethenylcyclopropyl}-5,8-dioxo-19-[2-(piperidin-1-yl)ethoxy]-1,2,3,3a,5,6,7,8,11,12,20,23,24,24a-tetradecahydro-10H-9,12-methanocyclopenta[18,19][1,10,3,6]dioxadiazacyclononadecino[11,12-b]quinoline-10-carboxamide], the Ki is 0.28 nM in assay [1] and 2.3 nM in assay [2].
Turning to `C=C[C@@H]1C[C@]1(NC(=O)[C@@H]1C[C@@H]2CN1C(=O)[C@H](C(C)(C)C)NC(=O)O[C@@H]1C[C@H]1CCCCCc1c(nc3ccccc3c1OCCN1CCS(=O)(=O)CC1)O2)C(=O)NS(=O)(=O)C1(C)CC1` [Example 176, (1aR,5S,8S,10R,22aR)-5-tert-butyl-17-[2-(1,1-dioxidothiomorpholin-4-yl)ethoxy]-N-[(1R,2S)-2-ethenyl-1-{[(1-methylcyclopropyl)sulfonyl]carbamoyl}cyclopropyl]-3,6-dioxo-1,1a,3,4,5,6,9,10,18,19,20,21,22,22a-tetradecachydro-8H-7,10-methanocyclopropa[18,19][1,10,3,6] dioxadiazacyclononadecino[11,12-b] quinoline-8-carboxamide], the values for the Ki in assay [1] and in assay [2] were 0.1 nM and 1.3 nM, respectively.
With `C=C[C@@H]1C[C@]1(NC(=O)[C@@H]1C[C@@H]2CN1C(=O)[C@H](C1CCCC1)NC(=O)O[C@@]1(C)CCC[C@@H]1CCCCCc1c(nc3ccccc3c1O)O2)C(=O)NS(=O)(=O)C1CC1` [Example 30, (3aS,7S,10S,12R,24aS)-7-cyclopentyl-N-{(1R,2S)-1-[(cyclopropylsulfonyl)carbamoyl]-2-ethenylcyclopropyl}-19-hydroxy-3a-methyl-5,8-dioxo-1,2,3,3a,5,6,7,8,11,12,20,21,22,23,24,24a-hexa-decahydro-10H-9,12-methanocyclopenta[18,19] [1,10,3,6]dioxadiazacyclononadecino[11,12-b] quinoline-10-carboxamide], the Ki in assay [1] amounted to 1.3 nM; in assay [2] it was 4.9 nM.

For orientation: Ki means a dissociation constant, usually derived from enzyme kinetics or from competition with a known ligand. A lower Ki goes with higher affinity.
